Data set [1] deals with TNF-α. The data set is described as follows: TNF-α ELISA in LPS-activated BV-2 microglia. The note with it: pre-treatment, dose-dependent, result in words. In kind it is cell-based, mouse. On the procedure: (§1) BV-2 microglial cells were cultured in 96-well plates, preincubated for 30 min. with different concentrations of compounds 1 and 7 and then stimulated for 24 h with LPS (Sigma-Aldrich Co.). Supernatant from the culture (100 μL) was collected to determine the concentration of PGE2, TNF-α, IL-1β, and IL-6, respectively, with ELISA kits (TNF-α, Abcam, Cambridge, MA, USA; PGE2, IL-1β, and IL-6, R&D Systems, Minneapolis, MN, USA).

For data set [2], the system named is cyclooxygenase-2 (COX-2) protein expression. Briefly: Western blot of COX-2 expression in LPS-activated BV-2 microglia. The data set is classed as cell-based, mouse. The note with it: result in words. As to the method: Cells were harvested and lysed with radioimmunoprecipitation (RIPA) buffer (Bio-Rad, Hercules, CA USA). Cell lysates were centrifuged, and the supernatant was collected. The protein concentration was determined by protein assay reagents (Bio-Rad). The proteins were separated onto 10% SDS-polyacrylamide gel and transferred to polyvinylidene fluoride (PVDF) membrane. The membranes were blocked with 5% non-fat dry milk in Tris-buffered saline with 0.1% Tween-20 (TBS-T) buffer for 1 h at room temperature and then incubated with primary antibodies in TBS-T buffer containing 1% non-fat dry milk overnight at 4 °C. The membranes were washed with TBS-T buffer and incubated with goat anti-rabbit or anti-mouse horseradish peroxidase-conjugated IgG secondary antibodies from Santa Cruz Biotechnology (Santa Cruz, CA, USA) for 2 h. The membranes were washed with TBS-T buffer, and the antigen-antibody complex was detected with an enhanced chemiluminescence detection system (GE Healthcare, Milwaukee, MI, USA).
A general note: A western blot detects proteins with antibodies after separation by electrophoresis.

In data set [3] the test system is PGE2. Briefly: PGE2 ELISA in LPS-activated BV-2 microglia. In kind it is cell-based, mouse. The note with it: pre-treatment, dose-dependent, result in words. On the procedure: as §1
(In general: An ELISA detects its analyte on a solid surface through an enzyme-linked reagent.)

Data set [4] concerns NO production in LPS-activated BV-2 cells. The data set is described as follows: NO production assay (Griess reagent) in LPS-activated BV-2 cells. The data set is classed as cell-based. Particulars: Mus musculus; LPS-stimulated BV-2 cells; samples 1 h before 100 ng/mL LPS, 24 h incubation; read-out: IC50, concentration that caused 50% inhibition of NO production. As to the method:
(§2) The BV-2 mouse microglial cells were generously provided by Dr. Sun Yeou Kim at Kyunghee University (Suwon, Korea). The cells were maintained in DMEM containing 10% FBS with 1% PS at 37 °C in a humidified atmosphere of 95% air and 5% CO2. All tested fractions and samples were dissolved in DMSO (final concentration in cultures ≤0.1%).
(§3) To evaluate NO production, we seeded BV-2 cells in 96-well plates (4 × 10^5 cells/mL) for 24 h and then treated them with various concentrations of the samples for 1 h before exposure to 100 ng/mL of LPS. After the 24 h incubation, the nitrite in the culture media was measured to assess NO production in the BV-2 cells with the Griess reagent (1% sulfanilamide and 0.1% naphtylethylenediamine dihydrochloride in 2% phosphoric acid). In 96-well plates, 100 μL of sample aliquots were mixed with 100 μL of Griess reagent and incubated at room temperature for 15 min. The absorbance at 550 nm was measured on a microplate reader. The concentration was determined with a nitrite standard curve. Cell viability was assessed by the MTT assay. After exposing the cells to 2 mg/mL MTT for 2 h, the absorbance was measured by an ELISA plate reader at 562 nm.

Data set [5] relates to BV-2 cells. Briefly: Cell viability by MTT assay. In kind it is cell-based, mouse. Particulars: BV-2 cells, result in words. As to the method: as §2, §3
Background: Formazan colour is commonly taken as a measure of viable cells.

The nature of data set [6]: Cell viability by MTT assay. In kind it is cell-based, mouse. Particulars: mouse, BV-2 microglial cells; MTT assay after treatment with 100 μM of each compound for 24 h; mean ± SD. On the procedure: as §2, §3
In data set [7] the test system is IL-1β. Briefly: IL-1β ELISA in LPS-activated BV-2 microglia. The data set is classed as cell-based, mouse. The note with it: pre-treatment, dose-dependent, result in words. As to the method:
as §1

Data set [8] deals with IL-6. The data set is described as follows: IL-6 ELISA in LPS-activated BV-2 microglia. In kind it is cell-based, mouse. The note with it: pre-treatment, dose-dependent, result in words. On the procedure: as §1

Usually viability stands for the share of living cells, or the viability signal relative to a control.

For `C=C1[C@@H]2CC[C@H]3[C@]4(C)C[C@H](O)CC(C)(C)[C@H]4CC[C@]3(C2)[C@H]1O` [Compound 1, 2β,15α-dihydroxy-ent-kaur-16-ene], the “Level of TNF-α” value in data set [1] is recorded as “effectively decreased”. Besides, the “Protein level of COX-2 increased by LPS treatment” value in data set [2] is on record as “down-regulated”. In addition, the “Level of PGE2” value in data set [3] was “effectively decreased”. Moreover, the IC50 in data set [4] amounted to 13.9 µM. Besides, the Cytotoxicity result in data set [5] is “without any cytotoxicity”. The viability at 24 h, 100 μM in data set [6] came out at 90.7 ± 7.3%. Moreover, the “Level of IL-1β” value in data set [7] was “effectively decreased”. For the same compound, in data set [8], the “Level of IL-6” value is listed as “effectively decreased”.

As to `C=C1[C@@H]2CC[C@H]3[C@]4(C)C[C@H](O[C@@H]5O[C@H](CO)[C@@H](O)[C@H](O)[C@H]5O)CC(C)(C)[C@H]4CC[C@]3(C2)[C@H]1O` [Compound 2, creticoside A], the IC50 in data set [4] is 92 µM. The viability at 24 h, 100 μM in data set [6] was determined as 95.7 ± 4%.

With `C=C1[C@@H]2CC[C@H]3[C@]4(C)C[C@H](O)C[C@](C)(CO)[C@H]4CC[C@]3(C2)[C@H]1O` [Compound 3, pterokaurane M1], the IC50 in data set [4] turned out to be 84 µM. For the same compound, the viability at 24 h, 100 μM in data set [6] was determined as 87.7 ± 2.9%.

On to `C=C1[C@@H]2CC[C@H]3[C@]4(C)C[C@H](O[C@@H]5O[C@H](CO)[C@@H](O)[C@H](O)[C@H]5O)C[C@](C)(CO)[C@H]4CC[C@]3(C2)[C@H]1O` [Compound 4, pterokaurane M1 2-O-β-D-glucopyranoside], for which the IC50 in data set [4] was determined as 148 µM. The compound also showed a viability at 24 h, 100 μM in data set [6] of 90.5 ± 10.2%.

As to `C=C1[C@@H]2CC[C@H]3[C@]4(C)C[C@H](O[C@@H]5O[C@H](CO)[C@@H](O)[C@H](O)[C@H]5O)C[C@@](C)(CO)[C@H]4CC[C@]3(C2)[C@H]1O` [Compound 5, 2β,15α,19-trihydroxy-ent-kaur-16-ene 2-O-β-D-gluco-pyranoside], the IC50 in data set [4] was 148 µM. The viability at 24 h, 100 μM in data set [6] is 73.6 ± 2.9%.

With `C=C1[C@@H]2CC[C@H]3[C@]4(C)C[C@H](O)CC(C)(C)[C@H]4[C@H](O)C[C@]3(C2)[C@H]1O` [Compound 6, 2β,6β,15α-trihydroxy-ent-kaur-16-ene], in data set [4], the IC50 turned out to be 137 µM. In addition, the viability at 24 h, 100 μM in data set [6] is 85.9 ± 0.1%.

Regarding `C=C1[C@@H]2CC[C@H]3[C@]4(C)C[C@H](O)CC(C)(C)[C@H]4CC[C@]3([C@@H]2O)[C@H]1O` [Compound 7, pterokaurane P1], the “Level of TNF-α” value in data set [1] is “effectively decreased”. Besides, the “Protein level of COX-2 increased by LPS treatment” value in data set [2] is reported as “down-regulated”. Further, the “Level of PGE2” value in data set [3] is on record as “effectively decreased”. Also, in data set [4], the IC50 was determined as 10.8 µM. Further, the Cytotoxicity entry in data set [5] was “without any cytotoxicity”. This compound also came in with a viability at 24 h, 100 μM in data set [6] of 88.7 ± 2.4%. Moreover, the “Level of IL-1β” value in data set [7] is given as “effectively decreased”. Also, the “Level of IL-6” value in data set [8] was “effectively decreased”.

For `C=C1[C@@H]2CC[C@H]3[C@]4(C)C[C@H](O[C@@H]5O[C@H](CO)[C@@H](O)[C@H](O)[C@H]5O)CC(C)(C)[C@H]4CC[C@]3([C@@H]2O)[C@H]1O` [Compound 8, pterokaurane P1 2-O-β-D-glucopyranoside], in data set [4], the IC50 was determined as 101 µM. The same compound gave a viability at 24 h, 100 μM in data set [6] of 91.7 ± 3.7%.

Turning to `CC1(C)C[C@@H](O)C[C@]2(C)[C@@H]1CC[C@@]13C[C@@H](CC[C@H]12)[C@](C)(O)C3` [Compound 9, 2β,16α-dihydroxy-ent-kaurane], in data set [4], the IC50 came to 122 µM. The compound also displayed a viability at 24 h, 100 μM in data set [6] of 97.5 ± 1.3%.

As to `CC1(C)C[C@@H](O[C@@H]2O[C@H](CO)[C@@H](O)[C@H](O)[C@H]2O)C[C@]2(C)[C@@H]1CC[C@@]13C[C@@H](CC[C@H]12)[C@](C)(O[C@@H]1O[C@H](CO)[C@@H](O)[C@H](O)[C@H]1O)C3` [Compound 10, 2β,16α-dihydroxy-ent-kaurane 2,16-di-O-β-D-glucopyranoside], the IC50 in data set [4] stood at 182 µM. The compound also displayed a viability at 24 h, 100 μM in data set [6] of 88.2 ± 8%.

For `C[C@]1(CO)C[C@@H](O)C[C@]2(C)[C@@H]1CC[C@@]13C[C@@H](CC[C@H]12)[C@](C)(O)C3` [Compound 11, pterokaurane R], the IC50 in data set [4] amounted to 171 µM. In data set [6], this compound returned a viability at 24 h, 100 μM of 83.2 ± 10.2%.

With `CC1(C)C[C@@H](O[C@@H]2O[C@H](CO)[C@@H](O)[C@H](O)[C@H]2O)C[C@]2(C)[C@@H]1CC[C@@]13C[C@@H](CC[C@H]12)[C@@](O)(CO)C3` [Compound 12, 2β,16α,17-trihydroxy-ent-kaurane 2-O-β-D-glucopyranoside], the IC50 in data set [4] amounted to 114 µM. In addition, in data set [6], the viability at 24 h, 100 μM is 93.6 ± 8.3%.

As to `COC(=O)[C@@H](N)CCCNC(N)=N[N+](=O)[O-]` [L-NAME, Nω-nitro-L-arginine methyl ester, reference compound], the IC50 in data set [4] was found to be 53.5 µM. For the same compound, the viability at 24 h, 100 μM in data set [6] was determined as 100 ± 5%.
